These are literature values, as cited in patent US5830500A, “Low dose fluoxetine tablet” (Pentech Pharmaceuticals, Inc., priority 1996, dated 1998).

In the data set the test system is premature ejaculation. The settings on record: reported.

As for `CN(C)CCCN1c2ccccc2CCc2ccc(Cl)cc21` [clomipramine], the side effects entry is “weight gain, sedation, and anticholinergic effects”. In addition, the “success in managing premature ejaculation” value (informal use by a few practitioners) is on record as “Some limited success”.
